Results reported in patent US20110028504A1, “Formulation of radioprotective alpha beta unsaturated aryl sulfones” (ONCONOVA THERAPEUTICS, INC., priority 2005, published 2011).

What was measured:
HFL-1 cells = experiment: Radioprotection of cultured normal cells, colony count after ionizing radiation; format: cell-based, human; details: 2.5 to 20 micromolar for 24 hrs before 10 Gy or 15 Gy ionizing radiation, colonies vs DMSO control
Protocol: HFL-1 cells, which are normal diploid lung fibroblasts, were plated into 24 well dishes at a cell density of 3000 cells per 10 mm^2 in DMEM completed with 10% fetal bovine serum and antibiotics. The test compounds listed in Table 28 were added to the cells 24 hours later in select concentrations from 2.5 to 20 micromolar, inclusive, using DMSO as a solvent. Control cells were treated with DMSO alone. The cells were exposed to the test compound or DMSO for 24 hrs. The cells were then irradiated with either 10 Gy (gray) or 15 Gy of ionizing radiation (IR) using a J.L. Shepherd Mark I, Model 30-1 Irradiator equipped with ^137cesium as a source.
After irradiation, the medium on the test and control cells was removed and replaced with fresh growth medium without the test compounds or DMSO. The irradiated cells were incubated for 96 hours and duplicate wells were trypsinized and replated onto 100 mm^2 tissue culture dishes. The replated cells were grown under normal conditions with one change of fresh medium for 3 weeks. The number of colonies from each 100 mm^2 culture dish, which represents the number of surviving cells, was determined by staining the dishes as described below.
To visualize and count the colonies derived from the clonal outgrowth of individual radioprotected cells, the medium was removed and the plates were washed one time with room temperature phosphate buffered saline. The cells were stained with a 1:10 diluted Modified Giemsa staining solution (Sigma) for 20 minutes. The stain was removed, and the plates were washed with tap water. The plates were air dried, the number of colonies from each plate were counted and the average from duplicate plates was determined.
A “+” indicates radioprotective activity of between 2- and 4.5-fold at the concentrations tested. Fold protection was determined by dividing the average number of colonies from the test plates by the average number of colonies on the control plates.

rodent species = details: in vivo; cited from earlier work
C57 black mice = experiment: Protection of mice from radiation toxicity by pre-treatment; format: in vivo
Protocol: C57 black mice age 10-12 weeks (Taconic) were divided into two treatment groups of 10 mice each. One group, designated the “200×2” group, received intraperitoneal injections of 200 micrograms (E)-4-carboxystyryl-4-chlorobenzylsulfone dissolved in DMSO (a 10 mg/Kg dose, based on 20 g mice) 18 and 6 hours before irradiation with 8 Gy gamma radiation. The other group, designated “500×2,” received intraperitoneal injections of 500 micrograms (E)-4-carboxystyryl-4-chlorobenzylsulfone dissolved in DMSO (a 25 mg/Kg dose, based on 20 g mice) 18 and 6 hours before irradiation with 8 Gy gamma radiation. A control group of 16 animals received 8 Gy gamma radiation alone.

Compound	Activity (radioprotective activity, fold protection) (HFL-1 cells)	also measured
O=S(=O)(/C=C/c1ccc(F)cc1)Cc1ccc(Cl)cc1 [Compound 1, (E)-4-Fluorostyryl-4-chlorobenzylsulfone]	+ (A “+” indicates radioprotective activity of between 2- and 4.5-fold at the concentrations tested)	
(E)-2,4,6-Trimethoxystyryl-4-methoxybenzylsulfone [Compound 2]	+ (A “+” indicates radioprotective activity of between 2- and 4.5-fold at the concentrations tested)	
Hydroxypropyl-B-Cyclodextrin [HPCD]		toxicity (rodent species): non-toxic
O=S(=O)(/C=C/c1ccoc1)Cc1ccc(Cl)cc1Cl [Compound 8, (E)-3-Furanethenyl-2,4-dichlorobenzylsulfone]	+ (A “+” indicates radioprotective activity of between 2- and 4.5-fold at the concentrations tested)	
(E)-4-Fluorostyryl-4-trifluoromethylbenzylsulfone [Compound 5]	+ (A “+” indicates radioprotective activity of between 2- and 4.5-fold at the concentrations tested)	
(Z)-Styryl-(E)-2-methoxy-4-ethoxystyrylsulfone [Compound 11]	+ (A “+” indicates radioprotective activity of between 2- and 4.5-fold at the concentrations tested)	
(E)-4-Fluorostyryl-4-chlorophenylsulfone [Compound 10]	+ (A “+” indicates radioprotective activity of between 2- and 4.5-fold at the concentrations tested)	
O=C(O)c1ccc(/C=C/S(=O)(=O)Cc2ccc(Cl)cc2)cc1 [Compound 13, (E)-4-Carboxystyryl-4-chlorobenzylsulfone]	+ (A “+” indicates radioprotective activity of between 2- and 4.5-fold at the concentrations tested)	maximum mortality rate by day 40 (C57 black mice; “200×2” group: 10 mg/Kg intraperitoneal 18 and 6 hours before 8 Gy gamma radiation): approximately 60%; mice dead at day 20 (C57 black mice; “200×2” group: 10 mg/Kg intraperitoneal 18 and 6 hours before 8 Gy gamma radiation (control 80%)): about 50%; maximum mortality rate by day 40 (C57 black mice; “500×2” group: 25 mg/Kg intraperitoneal 18 and 6 hours before 8 Gy gamma radiation): about 50%; mice dead at day 20 (C57 black mice; “500×2” group: 25 mg/Kg intraperitoneal 18 and 6 hours before 8 Gy gamma radiation (control 80%)): about 30%
O=S(=O)(/C=C\c1ccc(F)cc1)Cc1ccc(Cl)cc1 [Compound 7, (Z)-4-Fluorostyryl-4-chlorobenzylsulfone]	+ (A “+” indicates radioprotective activity of between 2- and 4.5-fold at the concentrations tested)	
(E)-4-Fluorostyryl-4-cyanobenzylsulfone [Compound 6]	+ (A “+” indicates radioprotective activity of between 2- and 4.5-fold at the concentrations tested)	
